Laboratory results: patent US4478763A, “Process for preparing alpha-fluorinated alkanediphosphonates” (Univ. of Southern California, priority 1982, dated 1984)
Entries after “also recorded” stand apart in the source; their conditions may differ. Like-named read-outs stand apart in the source and are kept apart here.

Assays:
[1] = cited from earlier work
[2] = Estimation of pK° values of mono and difluoro methanediphosphonic acid from 31P chemical shift data; assay type: physicochemical; conditions: calculated from 31P chemical shift data
Experimental: (§1) The effect of fluorine substitution on the acidity of methanediphosphonic acid is of interest. Using the empirical equations developed by R. G. Grabenstetter et al. J. Phys. Chem. 71, 4194 (1967), estimated pK° values for mono and difluoro methanediphosphonic acid were calculated and compared with experimental pK° data for the parent acid. It should be noted that the cited work set forth two alternative Taft equations for pK°4 on giving an optimal fit with bulkier substitution (e.g., CH3) and one to fit data for less sterically hindering substituents (e.g., H).

[3] = tested on: bone resorption; experiment: Inhibition of bone resorption; conditions: compared with known drugs; no test data given
[4] = Acidity comparison among methanediphosphonic acids; assay type: physicochemical; conditions: for acidity compared with other methanediphosphonic acids (in words): qualitative comparison
Experimental: as §1

[5] = experimental pK° data, parent acid
[6] = dichloro methanediphosphonic acid

## O=P(O)(O)CP(=O)(O)O [MDPA, methanediphosphonic acid]
[1]; [5]
  pK° 2: 3.1
  pK°3: 7.4
  pK° 4: 11.0

## O=P(O)(O)C(F)(F)P(=O)(O)O [difluoro MDPA, Difluoro Methanediphosphonic Acid]
[2]; read-out: pK° 2
  pKa: 2.57
[2]; read-out: pK° 3
  pKa: 6.08
[2]; read-out: pK° 4
  pKa: 9.07
[3]
  inhibition of bone resorption: inhibits bone resorption at least as effectively as known drugs
[4]; more acidic than the unfluorinated parent acid, calculated
  acidity of the fourth proton relative to unfluorinated parent acid: 100 fold
[4]
  acidity compared with other methanediphosphonic acids (in words): strongest of the halomethanediphosphonic acids

## O=P(O)(O)C(F)P(=O)(O)O [monofluoro MDPA, Fluoro Methanediphosphonic Acid]
[2]; listed as monofluoro acid
  pK° 4: approximately 10.1
[2]; read-out: pK° 2
  pKa: 2.78
[2]; read-out: pK° 3
  pKa: 6.62
[2]; read-out: pK° 4
  pKa: 10.1
[4]; listed as monofluoro acid
  acidity compared with other methanediphosphonic acids (in words): one order of magnitude below that of the parent acid; also recorded: comparable to that of dichloro methanediphosphonic acid

## O=P(O)(O)C(Cl)(Cl)P(=O)(O)O [dichloro methanediphosphonic acid]
[4]
  acidity compared with other methanediphosphonic acids (in words): weaker than the difluoro substituted acid
[1]; [6]
  pK°3: 6.1
  pK° 4: 9.8
